Assay results as given in patent US10112929B2, “Lactams as inhibitors of rock” (BRISTOL-MYERS SQUIBB COMPANY, priority 2015, dated 2018).
pIC50: −log10 of the molar value.

Each compound was assayed against ROCK2 (Homo sapiens (Human), UniProt O75116) (assay: biochemical).
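Further: rho kinase enzyme reaction halted with EDTA, phospho- and non-phospho peptide separated for read-out, kinase activity inhibition derived across a dose-response series, DMSO under 2%.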

Sequence of ROCK2 (O75116 whole entry, species assumed): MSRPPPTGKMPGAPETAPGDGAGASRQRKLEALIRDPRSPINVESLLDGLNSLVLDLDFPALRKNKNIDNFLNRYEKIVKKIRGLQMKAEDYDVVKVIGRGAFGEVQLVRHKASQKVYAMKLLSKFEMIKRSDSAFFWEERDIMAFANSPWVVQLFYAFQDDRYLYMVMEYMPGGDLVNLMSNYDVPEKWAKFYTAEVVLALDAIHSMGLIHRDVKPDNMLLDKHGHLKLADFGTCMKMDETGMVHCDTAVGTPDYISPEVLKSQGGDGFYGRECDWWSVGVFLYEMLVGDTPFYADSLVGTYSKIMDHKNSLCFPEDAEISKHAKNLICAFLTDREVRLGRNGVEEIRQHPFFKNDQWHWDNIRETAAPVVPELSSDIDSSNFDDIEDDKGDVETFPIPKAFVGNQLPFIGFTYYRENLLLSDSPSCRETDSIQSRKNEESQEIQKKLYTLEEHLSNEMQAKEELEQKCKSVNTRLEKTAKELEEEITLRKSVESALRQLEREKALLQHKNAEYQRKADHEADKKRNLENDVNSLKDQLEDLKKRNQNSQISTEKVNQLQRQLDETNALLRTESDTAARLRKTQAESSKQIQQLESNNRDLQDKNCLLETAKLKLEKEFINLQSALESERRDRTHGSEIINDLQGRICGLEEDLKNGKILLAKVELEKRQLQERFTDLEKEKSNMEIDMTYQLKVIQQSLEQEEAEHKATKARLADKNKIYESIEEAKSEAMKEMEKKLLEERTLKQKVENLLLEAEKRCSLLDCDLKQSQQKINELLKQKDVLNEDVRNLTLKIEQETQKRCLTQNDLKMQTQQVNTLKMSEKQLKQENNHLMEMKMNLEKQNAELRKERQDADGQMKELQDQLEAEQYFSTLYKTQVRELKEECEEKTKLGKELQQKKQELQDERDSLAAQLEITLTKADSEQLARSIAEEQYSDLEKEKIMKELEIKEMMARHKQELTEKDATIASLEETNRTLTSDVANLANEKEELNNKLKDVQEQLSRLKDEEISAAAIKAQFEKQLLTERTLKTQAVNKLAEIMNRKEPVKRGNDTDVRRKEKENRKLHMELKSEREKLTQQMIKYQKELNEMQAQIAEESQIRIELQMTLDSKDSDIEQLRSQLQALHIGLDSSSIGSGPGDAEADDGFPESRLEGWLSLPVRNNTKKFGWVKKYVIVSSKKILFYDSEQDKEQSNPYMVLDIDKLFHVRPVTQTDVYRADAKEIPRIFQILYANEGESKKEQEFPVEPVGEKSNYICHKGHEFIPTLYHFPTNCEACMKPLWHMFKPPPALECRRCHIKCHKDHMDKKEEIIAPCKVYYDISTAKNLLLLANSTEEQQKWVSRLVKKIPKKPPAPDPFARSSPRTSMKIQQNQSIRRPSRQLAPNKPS

Structure (SMILES) | pIC50
COc1cc(NC2CCN(c3cc(F)c(-c4cn[nH]c4)cc3F)C2=O)ccc1F (single isomer, unassigned) [Example 349, 1-(2,5-difluoro-4-(1H-pyrazol-4-yl)phenyl)-3-((4-fluoro-3-methoxyphenyl)amino)pyrrolidin-2-one] | 7.00 to 8.00
COc1cc(NC2CCN(c3cc(F)c(-c4cn[nH]c4)cc3F)C2=O)ccc1F (single isomer, unassigned) [Example 350, 1-(2,5-difluoro-4-(1H-pyrazol-4-yl)phenyl)-3-((4-fluoro-3-methoxyphenyl)amino)pyrrolidin-2-one] | 5.66 to 7.00
COc1cc(F)cc(NC2CCN(c3cc(F)c(-c4cn[nH]c4)cc3F)C2=O)c1 (single isomer, unassigned) [Example 351, 1-(2,5-difluoro-4-(1H-pyrazol-4-yl)phenyl)-3-((3-fluoro-5-methoxyphenyl)amino)pyrrolidin-2-one] | 7.00 to 8.00
COc1cc(F)cc(NC2CCN(c3cc(F)c(-c4cn[nH]c4)cc3F)C2=O)c1 (single isomer, unassigned) [Example 352, 1-(2,5-difluoro-4-(1H-pyrazol-4-yl)phenyl)-3-((3-fluoro-5-methoxyphenyl)amino)pyrrolidin-2-one] | > 8.00
COc1c(F)cccc1NC1CCN(c2ccc(-c3cn[nH]c3)cc2)C1=O (stereo not drawn) [Example 1, 1-(4-(1H-Pyrazol-4-yl)phenyl)-3-((3-fluoro-2-methoxyphenyl)amino)pyrrolidin-2-one] | > 8.00
Cc1cccc(NC2CCN(c3ccc(-c4cn[nH]c4)cc3)C2=O)c1 (stereo not drawn) [Example 2, 1-(4-(1H-pyrazol-4-yl)phenyl)-3-(m-tolylamino)pyrrolidin-2-one] | 7.00 to 8.00
COc1cc(F)cc(NC2CCN(c3ccc(-c4cn[nH]c4)cc3)C2=O)c1 (stereo not drawn) [Example 3, 1-(4-(1H-pyrazol-4-yl)phenyl)-3-((3-fluoro-5-methoxyphenyl)amino)pyrrolidin-2-one] | > 8.00
COc1cc(NC2CCN(c3ccc(-c4cn[nH]c4)cc3)C2=O)ccc1F (stereo not drawn) [Example 4, 1-(4-(1H-pyrazol-4-yl)phenyl)-3-((4-fluoro-3-methoxyphenyl)amino)pyrrolidin-2-one] | > 8.00
COc1ccc(F)cc1NC1CCN(c2ccc(-c3cn[nH]c3)cc2)C1=O (stereo not drawn) [Example 5, 1-(4-(1H-pyrazol-4-yl)phenyl)-3-((5-fluoro-2-methoxyphenyl)amino)pyrrolidin-2-one] | 7.00 to 8.00
CCOc1cccc(NC2CCN(c3ccc(-c4cn[nH]c4)cc3)C2=O)c1 (stereo not drawn) [Example 6, 1-(4-(1H-pyrazol-4-yl)phenyl)-3-((3-ethoxyphenyl)amino)pyrrolidin-2-one] | > 8.00
O=C1C(Nc2cccc(OC(F)F)c2)CCN1c1ccc(-c2cn[nH]c2)cc1 (stereo not drawn) [Example 7, 1-(4-(1H-pyrazol-4-yl)phenyl)-3-((3-(difluoromethoxy)phenyl)amino)pyrrolidin-2-one] | > 8.00
O=C1C(Nc2cccc(OC(F)(F)F)c2)CCN1c1ccc(-c2cn[nH]c2)cc1 (stereo not drawn) [Example 8, 1-(4-(1H-pyrazol-4-yl)phenyl)-3-((3-(trifluoromethoxy)phenyl)amino)pyrrolidin-2-one] | 7.00 to 8.00
O=C1C(Nc2cccnc2)CCN1c1ccc(-c2cn[nH]c2)cc1 (stereo not drawn) [Example 9, 1-(4-(1H-pyrazol-4-yl)phenyl)-3-(pyridin-3-ylamino)pyrrolidin-2-one] | 7.00 to 8.00
CC(C)Oc1cccc(NC2CCN(c3ccc(-c4cn[nH]c4)cc3)C2=O)c1 (stereo not drawn) [Example 10, 1-(4-(1H-pyrazol-4-yl)phenyl)-3-((3-isopropoxyphenyl)amino)pyrrolidin-2-one] | 7.00 to 8.00
O=C1C(Nc2cccc(OCC3CC3)c2)CCN1c1ccc(-c2cn[nH]c2)cc1 (stereo not drawn) [Example 11, 1-(4-(1H-pyrazol-4-yl)phenyl)-3-((3-(cyclopropylmethoxy)phenyl)amino)pyrrolidin-2-one] | > 8.00
COc1cccc(N(CCO)C2CCN(c3ccc(-c4cn[nH]c4)cc3)C2=O)c1 (stereo not drawn) [Example 12, 1-(4-(1H-pyrazol-4-yl)phenyl)-3-((2-hydroxyethyl)(3-methoxyphenyl)amino)pyrrolidin-2-one] | 7.00 to 8.00

Second part, the compound after the results:

pIC50 | Structure (SMILES)
7.00 to 8.00 | COc1cccc(NC2CCN(c3cc(F)c(-c4cn[nH]c4)cc3F)C2=O)c1 (single isomer, unassigned) [Example 353, 1-(2,5-difluoro-4-(1H-pyrazol-4-yl)phenyl)-3-((3-methoxyphenyl)amino)pyrrolidin-2-one]
7.00 to 8.00 | O=C1C(Nc2cccc(OC(F)F)c2)CCN1c1ccc(-c2cn[nH]c2)c(F)c1 (single isomer, unassigned) [Example 355, 3-((3-(difluoromethoxy)phenyl)amino)-1-(3-fluoro-4-(1H-pyrazol-4-yl)phenyl) pyrrolidin-2-one]
5.66 to 7.00 | COc1cccc(NC2CCN(c3ncc(-c4cn[nH]c4)cc3F)C2=O)c1 (single isomer, unassigned) [Example 357, 1-(3-fluoro-5-(1H-pyrazol-4-yl)pyridin-2-yl)-3-((3-methoxyphenyl)amino) pyrrolidin-2-one]
5.66 to 7.00 | COc1cc(F)cc(NC2CCN(c3ncc(-c4cn[nH]c4)cc3F)C2=O)c1 (single isomer, unassigned) [Example 359, 1-(3-fluoro-5-(1H-pyrazol-4-yl)pyridin-2-yl)-3-((3-fluoro-5-methoxyphenyl)amino) pyrrolidin-2-one]
> 8.00 | O=C1C(Nc2cccc(OCC3CC3)c2)CCN1c1ccc(-c2cn[nH]c2)c(F)c1 (single isomer, unassigned) [Example 361, 3-((3-(cyclopropylmethoxy)phenyl)amino)-1-(3-fluoro-4-(1H-pyrazol-4-yl)phenyl)pyrrolidin-2-one]
7.00 to 8.00 | O=C1C(Nc2cccc(OCC3CC3)c2)CCN1c1ccc(-c2cn[nH]c2)c(F)c1 (single isomer, unassigned) [Example 362, 3-((3-(cyclopropylmethoxy)phenyl)amino)-1-(3-fluoro-4-(1H-pyrazol-4-yl)phenyl)pyrrolidin-2-one]
7.00 to 8.00 | COc1cccc(NC2CCN(c3ccc(-c4cn[nH]c4)c(C4CC4)c3)C2=O)c1 (single isomer, unassigned) [Example 363, 1-(3-cyclopropyl-4-(1H-pyrazol-4-yl)phenyl)-3-((3-methoxyphenyl)amino) pyrrolidin-2-one]
7.00 to 8.00 | COc1ccc(F)c(NC2CCN(c3ccc(-c4cn[nH]c4)c(C)c3)C2=O)c1 (single isomer, unassigned) [Example 364, 3-((2-fluoro-5-methoxyphenyl)amino)-1-(3-methyl-4-(1H-pyrazol-4-yl)phenyl) pyrrolidin-2-one]
5.66 to 7.00 | COc1cc(NC2CCN(c3ccc(-c4cn[nH]c4)c(C)c3)C2=O)cc(OC)c1 (single isomer, unassigned) [Example 366, 3-((3,5-dimethoxyphenyl)amino)-1-(3-methyl-4-(1H-pyrazol-4-yl)phenyl) pyrrolidin-2-one]
5.66 to 7.00 | COc1cccc(NC2CCN(c3ccc(-c4cn[nH]c4)c(C(F)(F)F)c3)C2=O)c1 (single isomer, unassigned) [Example 367, 1-(4-(1H-pyrazol-4-yl)-3-(trifluoromethyl)phenyl)-3-((3-methoxyphenyl)amino) pyrrolidin-2-one]
5.66 to 7.00 | COc1cc(F)cc(NC2CCN(c3ccc(-c4cn[nH]c4)c(C(F)(F)F)c3)C2=O)c1 (single isomer, unassigned) [Example 369, 1-(4-(1H-pyrazol-4-yl)-3-(trifluoromethyl)phenyl)-3-((3-fluoro-5-methoxyphenyl)amino)pyrrolidin-2-one]
7.00 to 8.00 | COc1cc(F)cc(NC2CCN(c3ccc(-c4cn[nH]c4)c(C(F)(F)F)c3)C2=O)c1 (single isomer, unassigned) [Example 370, 1-(4-(1H-pyrazol-4-yl)-3-(trifluoromethyl)phenyl)-3-((3-fluoro-5-methoxyphenyl)amino)pyrrolidin-2-one]
5.66 to 7.00 | COc1cc(NC2CCN(c3ccc(-c4cn[nH]c4)c(C(F)(F)F)c3)C2=O)ccc1F (single isomer, unassigned) [Example 371, 1-(4-(1H-pyrazol-4-yl)-3-(trifluoromethyl)phenyl)-3-((4-fluoro-3-methoxyphenyl)amino)pyrrolidin-2-one]
5.66 to 7.00 | COc1ccc(F)c(NC2CCN(c3ccc(-c4cn[nH]c4)c(C(F)(F)F)c3)C2=O)c1 (single isomer, unassigned) [Example 373, 1-(4-(1H-pyrazol-4-yl)-3-(trifluoromethyl)phenyl)-3-((2-fluoro-5-methoxyphenyl)amino)pyrrolidin-2-one]
5.66 to 7.00 | COc1cc(F)cc(NC2CCN(c3ccc(-c4cn[nH]c4)c(C#N)c3)C2=O)c1 (single isomer, unassigned) [Example 374, 5-(3-((3-fluoro-5-methoxyphenyl)amino)-2-oxopyrrolidin-1-yl)-2-(1H-pyrazol-4-yl)benzonitrile]
7.00 to 8.00 | COc1cc(F)cc(NC2CCN(c3ccc(-c4cn[nH]c4)c(C#N)c3)C2=O)c1 (single isomer, unassigned) [Example 375, 5-(3-((3-fluoro-5-methoxyphenyl)amino)-2-oxopyrrolidin-1-yl)-2-(1H-pyrazol-4-yl)benzonitrile]
5.66 to 7.00 | COc1c(F)cccc1NC1CCN(c2ccc(-c3cn[nH]c3)c(C#N)c2)C1=O (single isomer, unassigned) [Example 376, 5-(3-((3-fluoro-2-methoxyphenyl)amino)-2-oxopyrrolidin-1-yl)-2-(1H-pyrazol-4-yl)benzonitrile]
5.66 to 7.00 | COc1cccc(NC2CCN(c3ccc(-c4cn[nH]c4)c(C#N)c3)C2=O)c1 (single isomer, unassigned) [Example 377, 5-(3-((3-methoxyphenyl)amino)-2-oxopyrrolidin-1-yl)-2-(1H-pyrazol-4-yl)benzonitrile]
7.00 to 8.00 | COc1cccc(NC2CCN(c3ccc(-c4cn[nH]c4)c(C#N)c3)C2=O)c1 (single isomer, unassigned) [Example 378, 5-(3-((3-methoxyphenyl)amino)-2-oxopyrrolidin-1-yl)-2-(1H-pyrazol-4-yl)benzonitrile]
5.66 to 7.00 | COc1cc(NC2CCN(c3ccc(-c4cn[nH]c4)c(C#N)c3)C2=O)ccc1F (single isomer, unassigned) [Example 379, 5-(3-((4-fluoro-3-methoxyphenyl)amino)-2-oxopyrrolidin-1-yl)-2-(1H-pyrazol-4-yl)benzonitrile]
